Data on 19 molecules can be found in patent publication US20090131527A1, “NOVEL ANTHRANILIC ACID DERIVATIVES AND CHLORIDE CHANNEL BLOCKING AGENT CONTAINING THE SAME” (Korea Institute of Science and Technology, priority 2007, published 2009).

The assay concerns the target Cl− channel activated by Ca2+ (calcium ion-activated chloride channels) (Xenopus laevis, UniProt B5SVV6). In words: Two-electrode voltage clamp recording of Ca2+-activated chloride current in Xenopus Laevis eggs (ionomycin/thapsigargin treated). The assay is classed as cell-based. As to conditions: for IC50: calcium ion-activated chloride channel current in Xenopus Laevis eggs, activated with 5 mM Ca2+, 15 s pretreatment with chemical; for inhibitory activity of calcium activated chloride channel current (in words): compared to the conventional anthranilic acid derivatives flufenamic acid and mefenamic acid / known inhibitors. The protocol: The prepared eggs were treated with 10 μM ionomycin (Sigma) for 30 min.
An intracellular solution was prepared by adding 0.5 mM EGTA and 1 μM Chelerythrine (Sigma) into a 1 M KCl solution, which was filled in glass microelectrodes. One of the above prepared eggs was placed on the chamber and two electrodes were inserted into opposite sides of the egg while the recording solution was poured. Current was measured by performing two-electrode voltage clamp recording according to a protocol suitable for the purpose of the experiment.
In order to activate a Ca^2+-dependent chloride channel, 5 mM Ca^2+ was treated first to the above eggs for 5 seconds. After being washed with the above recording solution for 50 seconds, and pretreated with the chemicals in the below Table 1 (treated in the order of […]) for 15 seconds, the eggs were treated with 5 mM Ca^2+ and the above chemicals (same amount as above) to measure the inhibitory concentrations of each chemical by comparing the current measured with 5 mM Ca^2+.
Background: Two-electrode voltage clamp is typically applied to oocytes expressing channels or transporters.

Cl− channel activated by Ca2+ (calcium ion-activated chloride channels), sequence (B5SVV6 entry or part of it): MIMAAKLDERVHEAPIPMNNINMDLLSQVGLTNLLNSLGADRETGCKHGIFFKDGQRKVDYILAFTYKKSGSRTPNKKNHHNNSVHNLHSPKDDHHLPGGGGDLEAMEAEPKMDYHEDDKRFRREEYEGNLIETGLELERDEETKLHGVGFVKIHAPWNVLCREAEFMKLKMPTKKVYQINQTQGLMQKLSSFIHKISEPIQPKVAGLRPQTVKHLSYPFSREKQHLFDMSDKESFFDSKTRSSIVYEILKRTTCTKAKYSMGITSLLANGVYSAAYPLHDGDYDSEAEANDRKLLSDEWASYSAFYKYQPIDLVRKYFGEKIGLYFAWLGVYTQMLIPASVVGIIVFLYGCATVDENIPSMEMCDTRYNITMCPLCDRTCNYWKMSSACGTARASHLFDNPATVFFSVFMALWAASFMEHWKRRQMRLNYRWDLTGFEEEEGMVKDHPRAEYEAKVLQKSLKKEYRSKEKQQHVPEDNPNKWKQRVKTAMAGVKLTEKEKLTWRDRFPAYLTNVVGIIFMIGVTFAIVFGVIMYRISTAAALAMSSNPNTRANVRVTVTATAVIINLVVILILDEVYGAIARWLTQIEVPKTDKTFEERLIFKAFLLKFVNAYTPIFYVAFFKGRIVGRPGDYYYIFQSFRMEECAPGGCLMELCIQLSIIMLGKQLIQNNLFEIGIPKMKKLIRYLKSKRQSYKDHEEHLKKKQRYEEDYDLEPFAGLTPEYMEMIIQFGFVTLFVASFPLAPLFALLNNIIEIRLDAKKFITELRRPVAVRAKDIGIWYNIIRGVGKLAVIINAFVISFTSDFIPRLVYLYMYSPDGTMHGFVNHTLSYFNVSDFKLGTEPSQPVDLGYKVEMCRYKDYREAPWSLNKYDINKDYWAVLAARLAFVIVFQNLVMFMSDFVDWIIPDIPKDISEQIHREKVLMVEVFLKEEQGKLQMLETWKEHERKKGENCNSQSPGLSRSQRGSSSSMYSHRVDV

For the molecule `O=C(O)c1cccnc1Nc1cccc(C(F)(F)F)c1` [Niflumic acid, reference compound], the IC50 came out at 37.3 µM.
Take `O=C(O)c1ccccc1Nc1ccc(Cl)cc1` [N-(4-Chlorophenyl)anthranilic acid]: the half-inhibitory concentration (IC50) is 11.3 µM and the “inhibitory activity of calcium activated chloride channel current (in words)” value is “notably high inhibitory activity”.
Take `O=C(O)c1ccccc1Nc1ccccc1C(F)(F)F` [N-(2-Trifluoromethylphenyl)anthranilic acid]: the IC50 worked out at 29.5 µM and the “inhibitory activity of calcium activated chloride channel current (in words)” value is given as “notably high inhibitory activity”.
As to `COc1ccc(Nc2ccccc2C(=O)O)cc1` [N-(4-Methoxyphenyl)anthranilic acid], the IC50 was determined as 102 µM.
For `O=C(O)c1c2ccccc2cc2ccccc12` [9-AC, 9-anthracene carboxylic acid, reference compound], the concentration for half-maximal inhibition (IC50) stood at 94.3 µM.
The same measure, in the same setting: the value for `Cc1cccc(Nc2ccccc2C(=O)O)c1C` [Mefenamic acid, reference compound] was 44.5 µM; that for `CC(C)c1ccc(Nc2ccccc2C(=O)O)cc1` [N-(4-Isopropylphenyl)anthranilic acid] was 17 µM; that for `O=C(O)c1cc([N+](=O)[O-])ccc1NCCCc1ccccc1` [NPPB, 5-nitro-2-(3-phenylpropylamino)benzoic acid, reference compound] was 32.3 µM.
With `O=C(O)c1ccccc1Nc1ccc(F)c(C(F)(F)F)c1` [N-(4-Fluoro-3-trifluoromethylphenyl)anthranilic acid], the IC50 came to 14.7 µM and the “inhibitory activity of calcium activated chloride channel current (in words)” value was “notably high inhibitory activity”.
Regarding `Cc1ccc(Nc2ccccc2C(=O)O)cc1` [N-(4-Methylphenyl)anthranilic acid], the IC50 stood at 55.3 µM.
Consider `O=S(=O)(O)c1cc(N=C=S)ccc1C=Cc1ccc(N=C=S)cc1S(=O)(=O)O` [DIDS, disodium 4,4′-diisothiocyano-2,2′-stilbenedisulphonic acid, reference compound], for which the IC50 was 10.7 µM.
With `O=C(O)c1ccccc1Nc1ccc([N+](=O)[O-])cc1` [N-(4-Nitrophenyl)anthranilic acid], the IC50 came to 17.8 µM and the “inhibitory activity of calcium activated chloride channel current (in words)” value is recorded as “notably high inhibitory activity”.
Take `O=C(O)c1ccccc1Nc1cccc(C(F)(F)F)c1` [Flufenamic acid, reference compound]: the IC50 is 35.4 µM.
The same measure, in the same setting: for `O=C(O)c1ccccc1Nc1ccc(F)cc1` [N-(4-Fluorophenyl)anthranilic acid] the value was 63.1 µM.
On to `O=C(O)c1ccccc1Nc1ccc(C(F)(F)F)cc1` [N-(4-Trifluoromethylphenyl)anthranilic acid], for which the IC50 was found to be 6 µM and the “inhibitory activity of calcium activated chloride channel current (in words)” value is “notably high inhibitory activity”.
For `O=C(O)c1cc([N+](=O)[O-])ccc1Nc1ccc([N+](=O)[O-])cc1` [5-Nitro-N-(4-nitrophenyl)anthranilic acid], in that order: 15.4 µM and “notably high inhibitory activity”.
`O=C(O)c1ccccc1Nc1cccc([N+](=O)[O-])c1` [N-(3-Nitrophenyl)anthranilic acid]: the IC50 was found to be 32.1 µM and the “inhibitory activity of calcium activated chloride channel current (in words)” value is reported as “notably high inhibitory activity”.
As to `CC(C)(C)c1ccc(Nc2ccccc2C(=O)O)cc1` [N-(4-tert-Butylphenyl)anthranilic acid], the 50% inhibitory concentration (IC50) worked out at 22.9 µM and the “inhibitory activity of calcium activated chloride channel current (in words)” value is on record as “notably high inhibitory activity”.
`O=C(O)c1ccccc1Nc1ccccc1` [N-Phenylanthranilic acid, reference compound]: the IC50 was 88.1 µM.

By IC50 is commonly meant the concentration that inhibits the measured activity by half.
